Test results reported in patent US7271171B2, “Adenosine A3 receptor modulators” (King Pharmaceuticals Research and Development, Inc., priority 1998, dated 2007).

Legend:
[1] = target: T1, adenosine A3 receptors in Jurkat cell membranes (Homo sapiens, UniProt P0DMS8); assay: Saturation binding of radioligand of Compound 108, Jurkat cell membranes
T1 construct: endogenous in cells; host or cells: Jurkat (human T-cell leukaemia)
T1 sequence (P0DMS8 1-318): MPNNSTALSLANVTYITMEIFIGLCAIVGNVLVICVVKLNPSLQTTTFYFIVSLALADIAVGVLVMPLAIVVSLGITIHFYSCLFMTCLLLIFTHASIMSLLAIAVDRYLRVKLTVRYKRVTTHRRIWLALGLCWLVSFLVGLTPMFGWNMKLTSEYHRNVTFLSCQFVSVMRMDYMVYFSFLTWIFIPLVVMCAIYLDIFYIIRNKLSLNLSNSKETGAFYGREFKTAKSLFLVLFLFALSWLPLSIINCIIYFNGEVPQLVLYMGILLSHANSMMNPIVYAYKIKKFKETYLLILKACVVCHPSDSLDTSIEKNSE

[2] = target: T2, adenosine A3 receptors in HL60 membranes (Homo sapiens, UniProt P0DMS8); assay: Saturation binding of radioligand of Compound 108, HL60 membranes
T2 construct: endogenous in cells; host or cells: HL60 (promyelocytic human leukaemia)
T2 sequence (P0DMS8 1-318): T1 sequence (P0DMS8 1-318)

For `[3H]CC([3H])Cn1cc2c(nc(NC(=O)Nc3ccc(OC)cc3)n3nc(-c4ccco4)nc23)n1` (stereo not shown) [radioligand of Compound 108, 5-[[(4-methoxyphenyl)amino]carbonyl]amino-8-(1,2-ditritiopropyl)-2-(2-furyl)-pyrazolo[4,3-e]1,2,4-triazolo[1,5-c]pyrimidine], the Bmax value ([1]; Jurkat cell membranes, FIG. 4, n=3) was 1.30±0.03 pmol/mg protein, the “A3 receptor density detected” value ([1]; Jurkat cells) was “approximately 1300 fmol/mg protein” and the “Bmax value / A3 receptor density detected” value ([2]; FIG. 5) was 626±42 fmol/mg protein. The “Bmax value / A3 receptor density detected” value ([2]; FIG. 5, listed as tritiated analogue of Compound 108) was ~650 fmol/mg protein.
